Data on six compounds can be found in ChEMBL document CHEMBL3137667, “[Drug-induced liver injury; fourteenth updated edition of the bibliographic database of liver injuries and related drugs]” (Gastroenterol Clin Biol, 2004).

A short description of data set [1]: Highest frequency of moderate liver toxicity observed during clinical trials, expressed as a percentage. [column '% BIOL' in source]. The following applies: human.
Data set [2] can be described thus: Highest frequency of acute liver toxicity observed during clinical trials, expressed as a percentage. [column '% AIGUE' in source]. The settings on record: human.
Data set [3] in a line: Presence of at least one case with successful reintroduction. [column 'REINT' in source]. The following applies: human.
Data set [4] can be described thus: Comments (NB not yet translated). [column 'COMMENTAIRES' in source]. The settings on record: human.
A short description of data set [5]: Times to onset, minimal and maximal, observed in the indexed observations. [column 'DELAI' in source]. The following applies: human.
Data set [6] is described as follows: Proposed mechanism(s) of liver damage. [column 'MEC' in source]. The following applies: human.
For data set [7] the following is noted: human, serum.
For data set [8] the following is noted: human, serum. The source holds these as a separate data set.
The conditions of data set [9]: human.
The conditions of data set [10]: human. The source holds these as a separate data set.
The conditions of data set [11]: human. The source holds these as a separate data set.
For data set [12] the following is noted: human, serum, 4383 h.
For data set [13] the following is noted: human. This is another data set of the same source.
For data set [14] the following is noted: human. This is another data set of the same source.
For data set [15] the following is noted: human. The source holds these as a separate data set.
The conditions of data set [16]: human. The source holds these as a separate data set.
For data set [17] the following is noted: human. The source holds these as a separate data set.
The conditions of data set [18]: human. This is another data set of the same source.
For data set [19] the following is noted: human. The source holds these as a separate data set.
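For Hepatotoxicity (association with vascular disease) in this document: count of indexed literature references reporting vascular liver injury in humans, e.g. peliosis hepatitis, hepatic veno-occlusive disease or Budd-Chiari syndrome.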
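For Hepatotoxicity (benign tumour) in this document: value is a count of indexed literature references citing a benign tumour confirmed by histopathology.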
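For Hepatotoxicity (choleostasis) in this document: human cholestatic liver injury, shown by histopathology or by peak ALT or AST elevation over alkaline phosphatase ratio below 2, value counts indexed literature reports.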
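For Hepatotoxicity (chronic liver disease) in this document: chronic liver injury confirmed by histopathology or persistently raised serum aminotransferase activity beyond 6 months, value given as the count of indexed literature references.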
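For Hepatotoxicity (cirrhosis) in this document: value is a count of indexed literature references reporting cirrhosis confirmed by histopathology.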
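For Hepatotoxicity (cytolytic) in this document: human cytolytic liver injury, shown by histopathology or by a ratio above 5 of peak ALT or AST elevation to alkaline phosphatase elevation, value counts indexed references.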
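For Hepatotoxicity (granulomatous hepatitis) in this document: value is a count of indexed literature references reporting granulomatous liver disease confirmed by histopathology.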
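For Hepatotoxicity (malignant tumour) in this document: malignant tumour confirmed by histopathology, value gives the count of indexed literature references reporting it.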
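For Hepatotoxicity (severe hepatitis) in this document: human clinical data: severe hepatitis, meaning potentially life-threatening liver failure or clinically observed cases, the value counts how many indexed literature references report it.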
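For Hepatotoxicity (steatosis) in this document: steatosis confirmed by histopathology, value is the count of indexed references.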

Take `CC(C)C(=O)Nc1ccc([N+](=O)[O-])c(C(F)(F)F)c1` [FLUTAMIDE]: the “Hepatotoxicity (moderate)” value in data set [1] is listed as 41.2%; in [7], 21. Moreover, the “Hepatotoxicity (acute)” value in [2] is recorded as 10%; in data set [8] it was 31. Moreover, the “Hepatotoxicity (successful reintroduction)” value in data set [3] is given as “yes”. The “Hepatotoxicity (comment)” value in data set [4] is given as “AC_ANTI-N”. Besides, the “Hepatotoxicity (time to onset)” value in data set [5] worked out at 3 days - 10 months. In [6], the “Hepatotoxicity (mechanism)” value is listed as “Allergic, Reactive metabolite, Dose-dependant”. In data set [9], the “Hepatotoxicity (cytolytic)” value is recorded as 21. Further, the “Hepatotoxicity (choleostasis)” value in data set [10] is recorded as 7. Also, the “Hepatotoxicity (severe hepatitis)” value in [11] worked out at 16. Moreover, in [12], the “Hepatotoxicity (chronic liver disease)” value amounted to 0. Further, the “Hepatotoxicity (cirrhosis)” value in data set [13] is on record as 0. Also, the “Hepatotoxicity (granulomatous hepatitis)” value in data set [14] came out at 0. For the same compound, the “Hepatotoxicity (association with vascular disease)” value in data set [15] is given as 0. The “Hepatotoxicity (steatosis)” value in data set [16] is on record as 0. Moreover, the “Hepatotoxicity (malignant tumour)” value in [17] came to 0. Moreover, the “Hepatotoxicity (benign tumour)” value in data set [18] is reported as 0. Also, the “Hepatotoxicity (animal toxicity known)” value in data set [19] is recorded as “yes”.

`FC(F)(F)C(Cl)Br` (centres undefined) [HALOTHANE]: the “Hepatotoxicity (moderate)” value in [1] was found to be 33%; in [7], 24. Also, the “Hepatotoxicity (acute)” value in [2] is 0%; in [8] it was 99. Also, in data set [3], the “Hepatotoxicity (successful reintroduction)” value was “yes”. In [4], the “Hepatotoxicity (comment)” value is “AC_ANTI-MFR1/-TFA RC/METHOXYFLURANE/ENFLURANE”. Also, the “Hepatotoxicity (time to onset)” value in [5] is reported as 1 day - 3 months. The “Hepatotoxicity (mechanism)” value in data set [6] was “Allergic, Toxic Metabolite”. The “Hepatotoxicity (cytolytic)” value in [9] was determined as 31. Also, the “Hepatotoxicity (choleostasis)” value in data set [10] is recorded as 7. The “Hepatotoxicity (severe hepatitis)” value in data set [11] turned out to be 35. Besides, in [12], the “Hepatotoxicity (chronic liver disease)” value came out at 3. In addition, in [13], the “Hepatotoxicity (cirrhosis)” value came out at 2. The “Hepatotoxicity (granulomatous hepatitis)” value in data set [14] is 2. The “Hepatotoxicity (association with vascular disease)” value in [15] is given as 0. Also, the “Hepatotoxicity (steatosis)” value in data set [16] came out at 1. For the same compound, the “Hepatotoxicity (malignant tumour)” value in [17] was found to be 0. Also, in [18], the “Hepatotoxicity (benign tumour)” value worked out at 0. For the same compound, in data set [19], the “Hepatotoxicity (animal toxicity known)” value is “yes”.

In the case of `CC(C)NNC(=O)c1ccncc1` [IPRONIAZID], the “Hepatotoxicity (moderate)” value in data set [1] turned out to be 30%; in [7] it was 2. Moreover, the results for the “Hepatotoxicity (acute)” value in data set [2] and in [8] were 1.4% and 30, respectively. The “Hepatotoxicity (successful reintroduction)” value in data set [3] is “yes”. In [4], the “Hepatotoxicity (comment)” value is listed as “AC_ANTI-M6 RC/PHENIPRAZINE”. Besides, the “Hepatotoxicity (time to onset)” value in data set [5] is on record as 3 days - 1 year. For the same compound, in data set [6], the “Hepatotoxicity (mechanism)” value is “Allergic, Reactive metabolite”. The “Hepatotoxicity (cytolytic)” value in data set [9] is 28. In addition, in [10], the “Hepatotoxicity (choleostasis)” value was found to be 3. For the same compound, the “Hepatotoxicity (severe hepatitis)” value in data set [11] came out at 18. For the same compound, the “Hepatotoxicity (chronic liver disease)” value in [12] was found to be 3. In addition, in data set [13], the “Hepatotoxicity (cirrhosis)” value was 3. For the same compound, the “Hepatotoxicity (granulomatous hepatitis)” value in [14] was found to be 0. For the same compound, the “Hepatotoxicity (association with vascular disease)” value in [15] was found to be 0. Besides, in data set [16], the “Hepatotoxicity (steatosis)” value is listed as 0. Moreover, the “Hepatotoxicity (malignant tumour)” value in data set [17] is 0. Further, the “Hepatotoxicity (benign tumour)” value in data set [18] stood at 0. In addition, the “Hepatotoxicity (animal toxicity known)” value in data set [19] is on record as “yes”.

For the compound `CC(C)Nc1ncccn1` [ISAXONINE], the “Hepatotoxicity (moderate)” value in data set [1] is on record as 0%; in data set [7], 0. The figures for the “Hepatotoxicity (acute)” value in data set [2] and in [8] were 0% and 13, respectively. For the same compound, the “Hepatotoxicity (successful reintroduction)” value in [3] was “yes”. In addition, in data set [4], the “Hepatotoxicity (comment)” value is “AC_ANTI-MFR1”. In addition, the “Hepatotoxicity (time to onset)” value in data set [5] was 1 month - 6 months. For the same compound, the “Hepatotoxicity (mechanism)” value in [6] is given as “Allergic, Reactive metabolite”. Besides, the “Hepatotoxicity (cytolytic)” value in data set [9] is given as 13. Besides, the “Hepatotoxicity (choleostasis)” value in [10] is on record as 3. For the same compound, the “Hepatotoxicity (severe hepatitis)” value in data set [11] stood at 4. Moreover, in [12], the “Hepatotoxicity (chronic liver disease)” value stood at 0. Also, the “Hepatotoxicity (cirrhosis)” value in data set [13] was found to be 0. The “Hepatotoxicity (granulomatous hepatitis)” value in [14] was found to be 1. Also, the “Hepatotoxicity (association with vascular disease)” value in data set [15] is reported as 0. Moreover, the “Hepatotoxicity (steatosis)” value in [16] is given as 1. Also, in data set [17], the “Hepatotoxicity (malignant tumour)” value was found to be 0. In addition, the “Hepatotoxicity (benign tumour)” value in [18] was determined as 0. The “Hepatotoxicity (animal toxicity known)” value in data set [19] is on record as “yes”.

Take `FC(F)OC(Cl)C(F)(F)F` (centres undefined) [ISOFLURANE]: the “Hepatotoxicity (moderate)” value in data set [1] was determined as 13.3%; in data set [7], 5. Also, the “Hepatotoxicity (acute)” value is given as 0% in [2] and 25 in data set [8]. Also, the “Hepatotoxicity (successful reintroduction)” value in [3] is given as “yes”. The “Hepatotoxicity (comment)” value in data set [4] was “AC_ANTI-MFR/-TFA I/ALCOOL”. Besides, the “Hepatotoxicity (time to onset)” value in data set [5] was below 1 day - 3 weeks. In addition, in data set [6], the “Hepatotoxicity (mechanism)” value is listed as “Allergic, Reactive metabolite”. For the same compound, the “Hepatotoxicity (cytolytic)” value in data set [9] came to 20. The “Hepatotoxicity (choleostasis)” value in data set [10] is 1. In data set [11], the “Hepatotoxicity (severe hepatitis)” value is 11. Also, the “Hepatotoxicity (chronic liver disease)” value in data set [12] worked out at 0. Further, the “Hepatotoxicity (cirrhosis)” value in data set [13] came to 0. In addition, the “Hepatotoxicity (granulomatous hepatitis)” value in data set [14] was determined as 0. Also, in data set [15], the “Hepatotoxicity (association with vascular disease)” value is on record as 0. Further, the “Hepatotoxicity (steatosis)” value in data set [16] is reported as 2. Further, in data set [17], the “Hepatotoxicity (malignant tumour)” value was 0. Besides, the “Hepatotoxicity (benign tumour)” value in [18] came to 0. Further, the “Hepatotoxicity (animal toxicity known)” value in data set [19] is reported as “yes”.

Turning to `NNC(=O)c1ccncc1` [ISONIAZID], the “Hepatotoxicity (moderate)” value in [1] came to 51.2%; in data set [7], 60. Besides, the “Hepatotoxicity (acute)” value in data set [2] came to 26.7%; in data set [8], 91. In data set [3], the “Hepatotoxicity (successful reintroduction)” value is on record as “yes”. Moreover, in data set [4], the “Hepatotoxicity (comment)” value was “I/CARBAMAZE/ENFLURANE/PARACETAMOL/RIFAMPICINE/RIFAMYCINE/VALPROATE”. The “Hepatotoxicity (time to onset)” value in data set [5] is reported as 1 day - 1 year. In data set [6], the “Hepatotoxicity (mechanism)” value is on record as “Dose-dependant, Reactive metabolite”. Moreover, the “Hepatotoxicity (cytolytic)” value in data set [9] was determined as 61. Besides, the “Hepatotoxicity (choleostasis)” value in data set [10] is recorded as 11. Moreover, in data set [11], the “Hepatotoxicity (severe hepatitis)” value was found to be 40. Also, in [12], the “Hepatotoxicity (chronic liver disease)” value came to 3. Besides, the “Hepatotoxicity (cirrhosis)” value in data set [13] amounted to 4. In addition, the “Hepatotoxicity (granulomatous hepatitis)” value in data set [14] amounted to 1. In addition, the “Hepatotoxicity (association with vascular disease)” value in [15] was determined as 0. Besides, the “Hepatotoxicity (steatosis)” value in [16] came out at 1. Further, the “Hepatotoxicity (malignant tumour)” value in [17] is recorded as 0. The “Hepatotoxicity (benign tumour)” value in [18] worked out at 0. Moreover, the “Hepatotoxicity (animal toxicity known)” value in data set [19] is “yes”.
